In patent US9023821B2, “Use of MicroRNA for treating diseases associated with a dysfunction of the cilia in multiciliated epithelial cells” (Centre National de la Recherche Scientifique, priority 2009, dated 2015):

Columns and labels:
[1] = system: basal cells and pyramidal cells of the airway epithelium; experiment: miRNA expression in sorted basal cells versus pyramidal cells (ciliated + secretory), HTS and Agilent chips; parameters: species or system human; conditions: for Modulation of expression of the miRNAs in pyramidal cells (323(−)) relative to basal cells 323(+): HTS and Agilent chips; for Intensity of the level of expression in log2 in pyramidal cells (323(−)): pyramidal cells (ciliated + secretory)
Summary of the method: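 Nasal polyp or concha epithelial cells from 3 donors FACS-sorted into CD151+/tissue factor+ basal cells and CD151−/TF− pyramidal (ciliated plus mucus-secreting) cells, excluding dead (DAPI) cells and doublets. miRNA profiles from total RNA obtained by Agilent chips or high-throughput sequencing.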

[2] = system: human airway epithelial cells (HAECs); experiment: High-throughput sequencing (HTS) of miRNAs at four stages of differentiation of HAECs; conditions: for Modulation (ratio of the level of intensity of expression in log2 in two stages of differentiation) measured by high-throughput sequencing, D7 − D0 / Modulation (ratio of the level of intensity of expression in log2 in two stages of differentiation) measured by high-throughput sequencing, FC − D7 / Modulation (ratio of the level of intensity of expression in log2 in two stages of differentiation) measured by high-throughput sequencing, WD − D0 / Modulation (ratio of the level of intensity of expression in log2 in two stages of differentiation) measured by high-throughput sequencing, WD − FC / Level of intensity of expression in log2 measured by high-throughput sequencing, D0 / Level of intensity of expression in log2 measured by high-throughput sequencing, D7 / Level of intensity of expression in log2 measured by high-throughput sequencing, FC / Level of intensity of expression in log2 measured by high-throughput sequencing, WD: Table VI; for Level of intensity of expression in log2 At the differentiated stage (WD) measured in HTS: healthy human airway epithelial tissue; for Level of intensity of expression in log2 measured by high-throughput sequencing, D0: stage D0; for Level of intensity of expression in log2 measured by high-throughput sequencing, D7: stage D7; for Level of intensity of expression in log2 measured by high-throughput sequencing, FC: stage FC; for Level of intensity of expression in log2 At the differentiated stage (WD) measured in HTS / Level of intensity of expression in log2 measured by high-throughput sequencing, WD: stage WD
Summary of the method: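 Total RNA (with small RNAs) from air-liquid-interface HAECs at ALI-D0, D7, first cilia (~14 d) and fully differentiated (~21 d); adaptor-ligated SOLiD small-RNA libraries, RT-PCR, gel-selected ~105-150 bases. Counts normalized to 10^6 sequences as % abundance; linear-model/empirical Bayes; kept >1% abundance, |Log2 Ratio| <0.5, adjusted P <0.05.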

[3] = system: human airway epithelial cells (HAECs); experiment: Agilent miRNA chips, miRNA expression at four stages of differentiation of HAECs; conditions: for Modulation (ratio of the level of intensity of expression in log2 in two stages of differentiation) measured with the Agilent chips, D7 − D0 / Modulation (ratio of the level of intensity of expression in log2 in two stages of differentiation) measured with the Agilent chips, FC − D7 / Modulation (ratio of the level of intensity of expression in log2 in two stages of differentiation) measured with the Agilent chips, WD − D0 / Modulation (ratio of the level of intensity of expression in log2 in two stages of differentiation) measured with the Agilent chips, WD − FC / Level of intensity of expression in log2 measured with the Agilent chips, D0 / Level of intensity of expression in log2 measured with the Agilent chips, D7 / Level of intensity of expression in log2 measured with the Agilent chips, FC / Level of intensity of expression in log2 measured with the Agilent chips, WD: Table VI; for Modulation (ratio of the level of intensity of expression in log2 at two stages of differentiation), FC − D7 / Modulation (ratio of the level of intensity of expression in log2 at two stages of differentiation), WD − FC: Agilent miRNA chips, Table V; for Level of intensity of expression in log2 measured with the Agilent chips, D0: stage D0; for Level of intensity of expression in log2 measured with the Agilent chips, D7: stage D7; for Level of intensity of expression in log2 measured with the Agilent chips, FC: stage FC; for Level of intensity of expression in log2 measured with the Agilent chips, WD: stage WD
Summary of the method: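 To benchmark sequencing, the microRNAome was also profiled by hybridizing labelled RNA from identical patient samples to v2 arrays with miRBase v.12.0 human content (866 miRNAs) and 89 viral miRNAs.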

How did the “Modulation of expression of the miRNAs in pyramidal cells (323(−)) relative to basal cells 323(+)” value [1] turn out when “hsa-miR-99a: human miRNA, SEQ ID No. 52 (AACCCGUAGAUCCGAUCUUGUG; expressed or natural sequence; listed as Homo sapiens)” was run?
Its value is 0.99.

What about the “Intensity of the level of expression in log2 in basal cells (323(+))” value [1] of the same substance?
The value was 5.42 log2.

And the “Intensity of the level of expression in log2 in pyramidal cells (323(−))” value [1]?
The value was 6.40 log2.

And the “Modulation (ratio of the level of intensity of expression in log2 in two stages of differentiation) measured by high-throughput sequencing, D7 − D0” value [2]?
Its value is 1.43 log2.

What about the “Modulation (ratio of the level of intensity of expression in log2 in two stages of differentiation) measured by high-throughput sequencing, FC − D7” value [2] of the same substance?
The value was 0.77 log2.

And the “Modulation (ratio of the level of intensity of expression in log2 in two stages of differentiation), D7 − D0” value ([2]; HTS)?
The value was 1.43 log2.

And the “Modulation (ratio of the level of intensity of expression in log2 in two stages of differentiation), FC − D7” value ([2]; HTS)?
The value was 0.77 log2.

What about the “Modulation (ratio of the level of intensity of expression in log2 in two stages of differentiation), WD − FC” value ([2]; HTS) of the same substance?
Its value is 0.69 log2.

And the “Abundance (%), D0” value ([2]; HTS, ALI-D0)?
The value was 0.19%.

And the “Abundance (%), D7” value ([2]; HTS, ALI-D7)?
The value was 0.52%.

What about the “Abundance (%), FC” value ([2]; HTS, ALI-FC) of the same substance?
The value was 0.85%.

And the “Abundance (%), WD” value ([2]; HTS, ALI-WD)?
Its value is 1.03%.

What about the “Modulation (ratio of the level of intensity of expression in log2 in two stages of differentiation) measured by high-throughput sequencing, WD − D0” value [2] of the same substance?
Its value is 2.88 log2.

What about the “Modulation (ratio of the level of intensity of expression in log2 in two stages of differentiation) measured by high-throughput sequencing, WD − FC” value [2] of the same substance?
The value was 0.69 log2.

What about the “Level of intensity of expression in log2 At the differentiated stage (WD) measured in HTS” value [2] of the same substance?
The value was 9.00 log2.

And the “Level of intensity of expression in log2 measured by high-throughput sequencing, D0” value [2]?
The value was 9.77 log2.

And the “Level of intensity of expression in log2 measured by high-throughput sequencing, D7” value [2]?
The value was 11.19 log2.

What about the “Level of intensity of expression in log2 measured by high-throughput sequencing, FC” value [2] of the same substance?
The value was 11.96 log2.

And the “Level of intensity of expression in log2 measured by high-throughput sequencing, WD” value [2]?
Its value is 12.65 log2.

What about the “Modulation (ratio of the level of intensity of expression in log2 in two stages of differentiation) measured with the Agilent chips, D7 − D0” value [3] of the same substance?
Its value is 2.33 log2.

What about the “Modulation (ratio of the level of intensity of expression in log2 at two stages of differentiation), FC − D7” value [3] of the same substance?
The value was 0.77 log2.

And the “Modulation (ratio of the level of intensity of expression in log2 in two stages of differentiation) measured with the Agilent chips, FC − D7” value [3]?
The value was 0.77 log2.

What about the “Modulation (ratio of the level of intensity of expression in log2 in two stages of differentiation) measured with the Agilent chips, WD − D0” value [3] of the same substance?
Its value is 3.28 log2.

And the “Modulation (ratio of the level of intensity of expression in log2 at two stages of differentiation), WD − FC” value [3]?
Its value is 0.19 log2.

What about the “Modulation (ratio of the level of intensity of expression in log2 in two stages of differentiation) measured with the Agilent chips, WD − FC” value [3] of the same substance?
The value was 0.19 log2.

What about the “Level of intensity of expression in log2 measured with the Agilent chips, D0” value [3] of the same substance?
Its value is 5.02 log2.

And the “Level of intensity of expression in log2 measured with the Agilent chips, D7” value [3]?
Its value is 7.35 log2.

What about the “Level of intensity of expression in log2 measured with the Agilent chips, FC” value [3] of the same substance?
The value was 8.12 log2.

What about the “Level of intensity of expression in log2 measured with the Agilent chips, WD” value [3] of the same substance?
Its value is 8.31 log2.

Which results are given for “hsa-miR-100: human miRNA, SEQ ID No. 1 (AACCCGUAGAUCCGAACUUGUG; expressed or natural sequence; listed as Homo sapiens)”?
Modulation of expression of the miRNAs in pyramidal cells (323(−)) relative to basal cells 323(+) [1]: 1.62; Intensity of the level of expression in log2 in basal cells (323(+)) [1]: 3.28 log2; Intensity of the level of expression in log2 in pyramidal cells (323(−)) [1]: 4.90 log2; Modulation (ratio of the level of intensity of expression in log2 in two stages of differentiation) measured by high-throughput sequencing, D7 − D0 [2]: −1.05 log2; Modulation (ratio of the level of intensity of expression in log2 in two stages of differentiation) measured by high-throughput sequencing, FC − D7 [2]: −2.36 log2; Modulation (ratio of the level of intensity of expression in log2 in two stages of differentiation) measured by high-throughput sequencing, WD − D0 [2]: −1.72 log2; Modulation (ratio of the level of intensity of expression in log2 in two stages of differentiation) measured by high-throughput sequencing, WD − FC [2]: 1.69 log2; Level of intensity of expression in log2 At the differentiated stage (WD) measured in HTS [2]: 9.00 log2; Level of intensity of expression in log2 measured by high-throughput sequencing, D0 [2]: 10.72 log2; Level of intensity of expression in log2 measured by high-throughput sequencing, D7 [2]: 9.67 log2; Level of intensity of expression in log2 measured by high-throughput sequencing, FC [2]: 7.32 log2; Level of intensity of expression in log2 measured by high-throughput sequencing, WD [2]: 9.00 log2; Modulation (ratio of the level of intensity of expression in log2 in two stages of differentiation) measured with the Agilent chips, D7 − D0 [3]: −0.46 log2; Modulation (ratio of the level of intensity of expression in log2 at two stages of differentiation), FC − D7 [3]: −1.25 log2; Modulation (ratio of the level of intensity of expression in log2 in two stages of differentiation) measured with the Agilent chips, FC − D7 [3]: −1.25 log2; Modulation (ratio of the level of intensity of expression in log2 in two stages of differentiation) measured with the Agilent chips, WD − D0 [3]: −1.49 log2; Modulation (ratio of the level of intensity of expression in log2 at two stages of differentiation), WD − FC [3]: 0.22 log2; Modulation (ratio of the level of intensity of expression in log2 in two stages of differentiation) measured with the Agilent chips, WD − FC [3]: 0.22 log2; Level of intensity of expression in log2 measured with the Agilent chips, D0 [3]: 8.00 log2; Level of intensity of expression in log2 measured with the Agilent chips, D7 [3]: 7.55 log2; Level of intensity of expression in log2 measured with the Agilent chips, FC [3]: 6.29 log2; Level of intensity of expression in log2 measured with the Agilent chips, WD [3]: 6.52 log2
